Usually IC50 stands for the concentration that gives 50% inhibition. What is called Ki is the equilibrium dissociation constant of an inhibitor or competing ligand from its target.

A short description of test [1]: DRUGMATRIX: Interleukin IL-1 radioligand binding (ligand: [125I] interleukin 1beta). It is filed as cell membranes, Membrane. Particulars: nih3t3; Not Active = under 50% inhibition at 10 µM.
The target in test [2] is Sigma non-opioid intracellular receptor 1 (Homo sapiens, UniProt Q99720). Description: DRUGMATRIX: Sigma1 radioligand binding (ligand: [3H] Haloperidol). It counts as cell membranes, Jurkat, Membrane. The settings on record: Not Active = under 50% inhibition at 10 µM.
Sigma non-opioid intracellular receptor 1, sequence (Q99720 whole entry): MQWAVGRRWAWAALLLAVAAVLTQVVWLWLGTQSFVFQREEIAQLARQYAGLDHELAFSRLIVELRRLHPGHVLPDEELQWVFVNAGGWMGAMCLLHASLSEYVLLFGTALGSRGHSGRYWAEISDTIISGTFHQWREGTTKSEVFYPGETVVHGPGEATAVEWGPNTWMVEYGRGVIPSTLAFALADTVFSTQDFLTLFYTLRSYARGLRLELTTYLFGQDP
The nature of test [3]: DRUGMATRIX: Glutamate, Kainate radioligand binding (ligand: [3H] Kainic acid). It is filed as cell membranes, Rattus norvegicus, Wistar, Brain, Membrane. Particulars: Not Active = under 50% inhibition at 10 µM.
The target of test [4] is C-C chemokine receptor type 5 (Homo sapiens, UniProt P51681). It is filed as cell membranes, HEK293, Membrane. Particulars: hek293. Note: in other assays of this panel Not Active means under 50% inhibition at 10 µM.
C-C chemokine receptor type 5, sequence (P51681 whole entry): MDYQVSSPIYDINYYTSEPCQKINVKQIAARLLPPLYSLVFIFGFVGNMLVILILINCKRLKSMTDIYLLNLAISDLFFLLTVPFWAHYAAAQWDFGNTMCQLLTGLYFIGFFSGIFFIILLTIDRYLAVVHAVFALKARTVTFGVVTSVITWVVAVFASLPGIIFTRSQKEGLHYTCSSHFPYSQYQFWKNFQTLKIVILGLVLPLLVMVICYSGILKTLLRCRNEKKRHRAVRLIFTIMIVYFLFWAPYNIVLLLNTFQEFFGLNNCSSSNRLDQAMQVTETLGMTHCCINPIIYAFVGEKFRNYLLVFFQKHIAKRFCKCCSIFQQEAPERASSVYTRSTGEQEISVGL
Test [5] concerns the target T1, Angiotensin-converting enzyme (Oryctolagus cuniculus, UniProt P12822).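 Note: enzymatic inhibition of angiotensin-converting enzyme measured with FAPGG as the substrate; in other assays of this panel Not Active means under 50% inhibition at 10 µM.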
T1 sequence (P12822 whole entry): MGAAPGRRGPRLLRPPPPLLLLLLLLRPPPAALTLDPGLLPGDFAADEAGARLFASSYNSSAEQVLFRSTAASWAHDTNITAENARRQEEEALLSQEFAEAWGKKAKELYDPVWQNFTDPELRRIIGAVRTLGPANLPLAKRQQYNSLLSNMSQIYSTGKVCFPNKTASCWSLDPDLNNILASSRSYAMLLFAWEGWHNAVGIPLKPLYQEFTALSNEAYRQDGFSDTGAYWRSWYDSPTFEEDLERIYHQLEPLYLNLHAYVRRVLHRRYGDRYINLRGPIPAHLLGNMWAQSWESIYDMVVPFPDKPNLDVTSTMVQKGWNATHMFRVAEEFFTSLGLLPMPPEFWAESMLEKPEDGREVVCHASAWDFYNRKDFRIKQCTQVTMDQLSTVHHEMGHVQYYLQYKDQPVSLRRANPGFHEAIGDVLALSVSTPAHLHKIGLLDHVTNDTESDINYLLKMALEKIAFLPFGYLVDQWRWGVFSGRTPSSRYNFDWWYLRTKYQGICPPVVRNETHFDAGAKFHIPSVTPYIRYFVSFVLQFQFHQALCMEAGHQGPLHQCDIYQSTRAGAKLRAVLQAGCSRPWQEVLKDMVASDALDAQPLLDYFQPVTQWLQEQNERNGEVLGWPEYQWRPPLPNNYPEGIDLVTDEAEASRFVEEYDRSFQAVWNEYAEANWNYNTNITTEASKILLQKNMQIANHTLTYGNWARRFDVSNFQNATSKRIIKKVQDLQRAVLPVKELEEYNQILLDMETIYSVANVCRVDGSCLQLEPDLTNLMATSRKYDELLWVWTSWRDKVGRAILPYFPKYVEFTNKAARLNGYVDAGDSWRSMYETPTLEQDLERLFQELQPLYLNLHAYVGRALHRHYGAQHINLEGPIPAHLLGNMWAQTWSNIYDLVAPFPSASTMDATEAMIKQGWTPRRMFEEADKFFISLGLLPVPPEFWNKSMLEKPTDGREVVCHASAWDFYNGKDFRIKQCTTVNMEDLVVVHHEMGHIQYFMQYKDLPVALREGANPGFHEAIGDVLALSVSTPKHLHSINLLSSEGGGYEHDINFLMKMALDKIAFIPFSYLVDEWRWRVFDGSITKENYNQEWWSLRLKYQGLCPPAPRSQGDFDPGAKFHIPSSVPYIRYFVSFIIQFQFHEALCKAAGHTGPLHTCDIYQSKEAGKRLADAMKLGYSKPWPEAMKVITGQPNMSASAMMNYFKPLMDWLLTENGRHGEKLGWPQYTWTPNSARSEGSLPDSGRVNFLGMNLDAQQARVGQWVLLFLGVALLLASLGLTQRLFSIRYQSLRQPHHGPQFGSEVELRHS
Nature of the test: biochemical. It counts as tissue-based, Lung.

Another test addresses Mu-type opioid receptor (Homo sapiens, UniProt P35372). Description: DRUGMATRIX: Opiate mu (OP3, MOP) radioligand binding (ligand: [3H] Diprenorphine). The settings on record: cho-k1; Not Active = under 50% inhibition at 10 µM. It counts as cell membranes, CHO-K1, Membrane.
The target of test [6] is 5-hydroxytryptamine receptor 1B (Rattus norvegicus, UniProt P28564). It counts as cell membranes, Wistar, Cerebral cortex, Membrane. Note: in other assays of this panel Not Active means under 50% inhibition at 10 µM.
5-hydroxytryptamine receptor 1B, sequence (P28564 whole entry): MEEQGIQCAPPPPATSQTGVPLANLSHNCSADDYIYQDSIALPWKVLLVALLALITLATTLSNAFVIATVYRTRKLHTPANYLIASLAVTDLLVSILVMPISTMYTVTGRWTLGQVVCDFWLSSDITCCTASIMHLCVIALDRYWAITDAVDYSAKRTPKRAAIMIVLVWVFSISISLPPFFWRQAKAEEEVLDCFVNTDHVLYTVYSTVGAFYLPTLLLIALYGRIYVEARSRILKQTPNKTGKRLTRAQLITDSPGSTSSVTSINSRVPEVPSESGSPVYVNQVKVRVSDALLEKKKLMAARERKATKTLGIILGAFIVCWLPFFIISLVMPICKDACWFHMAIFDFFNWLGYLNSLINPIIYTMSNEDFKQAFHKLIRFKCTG

Mu-type opioid receptor, sequence (P35372 whole entry): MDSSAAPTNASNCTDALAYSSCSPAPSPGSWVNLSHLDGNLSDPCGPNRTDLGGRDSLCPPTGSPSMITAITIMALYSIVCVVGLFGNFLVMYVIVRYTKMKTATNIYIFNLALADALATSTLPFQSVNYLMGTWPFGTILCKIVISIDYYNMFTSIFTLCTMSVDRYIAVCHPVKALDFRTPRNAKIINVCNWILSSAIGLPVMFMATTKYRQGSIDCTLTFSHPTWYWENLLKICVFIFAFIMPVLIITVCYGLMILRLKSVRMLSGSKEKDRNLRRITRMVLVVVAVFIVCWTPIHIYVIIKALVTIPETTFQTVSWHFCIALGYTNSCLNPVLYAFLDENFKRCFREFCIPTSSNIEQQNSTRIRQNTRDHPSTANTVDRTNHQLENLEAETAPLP

On to `CCC1(c2ccccc2)C(=O)NC(=O)NC1=O` [PHENOBARBITAL], for which the IC50 entry (in test [1]; in test [2] (jurkat); in test [3]; in test [4]; in test [5]; at Mu-type opioid receptor) was “Not Active” throughout. Further, in test [6], the 50% inhibitory concentration (IC50) entry is recorded as “Not Active”. In addition, the Ki entry in test [1] and in test [3] was “Not Active” in each case.
In the case of `Oc1ccccc1` [PHENOL], the half-maximal inhibitory concentration (IC50) result (in test [1]; in test [2] (jurkat); in test [3]; in test [4]; in test [5]; at Mu-type opioid receptor) was “Not Active” each time. The half-maximal inhibitory concentration (IC50) entry in test [6] is given as “Not Active”. The Ki result in test [1] and in test [3] was “Not Active” throughout.
With `c1ccc2c(c1)Nc1ccccc1S2` [PHENOTHIAZINE], the IC50 entry (in test [1]; in test [2] (jurkat); in test [3]; in test [4]; in test [5]; at Mu-type opioid receptor) was “Not Active” throughout. For the same molecule, the half-maximal inhibitory concentration (IC50) result in test [6] is “Not Active”. Besides, the Ki entry in test [1] and in test [3] was “Not Active” in each case.
Turning to `CCN1CCN(C(=O)N[C@@H](C(=O)N[C@@H]2C(=O)N3[C@@H]2SC(C)(C)[C@@H]3C(=O)O)c2ccccc2)C(=O)C1=O` [PIPERACILLIN], the IC50 entry (in test [1]; in test [2] (jurkat); in test [3]; in test [4]; in test [5]; at Mu-type opioid receptor) was “Not Active” in each case. In addition, in test [6], the IC50 result is given as “Not Active”. Also, the Ki entry in test [1] and in test [3] was “Not Active” in each case.
With `COc1cc(NC(C)CCCN)c2ncccc2c1` (centres undefined) [PRIMAQUINE], the 50% inhibitory concentration (IC50) entry (in test [1]; in test [2] (jurkat); in test [3]; in test [4]; in test [5]; on Mu-type opioid receptor) was “Not Active” throughout. In addition, the IC50 result in test [6] is recorded as “Not Active”. Also, the inhibition constant Ki result in test [1] and in test [3] was “Not Active” each time.
Take `CC(CN1c2ccccc2Sc2ccccc21)N(C)C` (centres undefined) [PROMETHAZINE]: the IC50 entry is “Not Active” in test [1]; 287 nM in test [2] (read-out: IC50); “Not Active” in test [3]; “Not Active” in test [4]; “Not Active” in test [5]; “Not Active” on Mu-type opioid receptor. Also, the 50% inhibitory concentration (IC50) entry in test [6] is given as “Not Active”. Besides, the inhibition constant Ki result was “Not Active” in test [1], 120 nM in test [2] (read-out: Ki) and “Not Active” in test [3].
`COc1ccc(C[C@H](N)C(=O)N[C@H]2[C@@H](O)[C@H](n3cnc4c(N(C)C)ncnc43)O[C@@H]2CO)cc1` [PUROMYCIN]: the IC50 result (in test [1]; in test [2] (jurkat); in test [3]; in test [4]; in test [5]; at Mu-type opioid receptor) was “Not Active” each time. Besides, the IC50 entry in test [6] was “Not Active”. Further, the Ki entry in test [1] and in test [3] was “Not Active” each time.

The values above are taken from ChEMBL document CHEMBL1909046, “DrugMatrix in vitro pharmacology data”.
